What was measured:
[1] = system: human breast cancer cell line MDA-MB231; experiment: MDA-MB231 growth inhibition assay; assay type: cell-based; conditions: 3 days incubation, CellTiter-Glo
Experimental: (§1) In this assay, the growth inhibitory activity of test compounds in a human breast cancer cell line MDA-MB231 was measured. MDA-MB231 cells were maintained in Dulbecco's Modified Eagle's medium (Wako Pure Chemical Industries, Ltd., 044-29765) medium containing 10% fetal bovine serum (FBS: Nichirei, 12D168), and penicillin and streptomycin in a 5% CO2 incubator (37° C.). To each well of a 96 well plate (Becton, Dickinson and Company, 353219), 75 μL of MDA-MB231 cell suspension adjusted to a concentration of 4×10^4 cells/mL with the culture medium was added, and the cells were incubated overnight in a 5% CO2 incubator (37° C.). On the next day, 25 μL of Compound (1) or Halichondrin B in three-fold dilution series suspended in the culture medium was added to each well, and the resultant was incubated for 3 days in a 5% CO2 incubator (37° C.). Then, cell viability was determined by CellTiter-Glo® Luminescent Cell Viability Assay (Promega) with EnVision 2103 Multilabel Reader (Perkin-Elmer, Wellesley, MA). Value of the wells containing cells without adding the test compounds was defined as 100% and the value of the wells containing no cells was defined as 0%. The concentration of the test compound necessary for inhibiting the cell growth by 50% (i.e., an IC50 value) was calculated, and shown in Table 2.

[2] = system: human squamous cell carcinoma of the head and neck (SCCHN) cell line FaDu; experiment: FaDu growth inhibition assay; assay type: cell-based; conditions: 3 days incubation, CellTiter-Glo
Experimental: as §1, with “squamous cell carcinoma of the head and neck (SCCHN)” for “breast cancer”, “FaDu” for “MDA-MB231”, “an RPMI-1640” for “Dulbecco's Modified Eagle's medium”, “187-02021)” for “044-29765)”, “1.” for “2.”

[3] = system: CD31-positive vessel in FaDu tumor; experiment: Effect on CD31-positive vessel in the FaDu subcutaneous model (Test Example 9); assay type: in vivo, nude mice; conditions: five days after administration
Experimental: A human squamous cell carcinoma of the head and neck (SCCHN) cell line FaDu, which had been cultured in an RPMI-1640 medium containing 10% FBS, and penicillin and streptomycin, was adjusted to a concentration of 5×10^7 cells/mL with PBS to prepare a cell suspension. The cell suspension was inoculated in a volume of 100 μL into a subcutaneous part of a right flank of nude mice, 7 weeks of ages (CAnN.Cg-Foxnlnu/CrlCrlj, female, Charles River Laboratories Japan, Inc.). Ten days after cell inoculation, a test compound in saline with 100 μM of hydroxypropyl-β-cyclodextrin was intravenously administered at doses from ½ MTD to MTD. The experiment was conducted on groups each consisting of 3 mice. Five days after administration, tumor samples were collected and fixed with IHC Zinc Fixative (BD Pharmingen) at 4° C. for 24 hr. Paraffin-embedded tissues were sectioned ([…]), mounted on positively charged slides, and air-dried. Immunohistochemical staining of CD31 was conducted using Ventana autostainer model Discover XT (Roche Diagnostics) according to the manufacture's protocol. Sections were deparaffinized, conditioned and the antigens were retrieved with CC1 (Ventana Medical Systems). Slides were blocked with Blocker A and Blocker B (Endogenous biotin blocking kit, Roche Diagnostics). Rat anti-mouse IgG CD31 antibody (Dianova GmbH) was applied at 2 μg/mL. Sections were incubated with the antibody for 6 hr, followed by 32 minutes incubation with biotinylated anti-rat IgG antibody (Jackson ImmunoResearch Laboratories) at 2.2 μg/mL. The detection was performed with Streptavidin-HRP D for 16 min, followed by incubation with DAB D and DAB H2O2 D (DABMap kit, Ventana Medical Systems, Inc) for 8 min. Slides were counterstained with Hematoxylin II (Roche Diagnostics) for 16 min, followed by incubation with Bluing reagent for 4 min. Sections were dehydrated in graded ethanols, defatted in xylene replacement and covered with DPX (Merck KGaA).
Immunostained slides were scanned using Vectra 2 Automated Slide Imaging System (Perkin Elmer Inc.). The number of blood vessels in the whole tumor was quantified by counting the CD31-positive objects using in Form 2 software (PerkinElmer Inc.) Area of the tumor region was measured by assessing the hematoxylin-staining area using inform 2 software (PerkinElmer Inc.) The number of blood vessels was normalized by the area of the tumor region. An increase rate of the blood vessel number of the test compound-dosing group was calculated with the below formula, and shown in Table 9.

[4] = system: FaDu subcutaneous xenograft; experiment: FaDu subcutaneous xenograft model in combination with cetuximab; assay type: in vivo, nude mice
Excerpt: A human squamous cell carcinoma of the head and neck (SCCHN) cell line FaDu, which had been cultured in an RPMI-1640 medium containing 10% FBS, and penicillin and streptomycin, was adjusted to a concentration of 5×10^7 cells/mL with Hanks' Balanced Salt Solution to prepare a cell suspension. The cell suspension was inoculated in a volume of […] into a subcutaneous part of a right flank of nude mice, 7 weeks of ages (CAnN.Cg-Foxnlnu/CrlCrlj, female, Charles River Laboratories Japan Inc.). Ten days after cell inoculation, the shortest diameter and the longest diameter of a tumor in each mouse were measured by using an electronic digital caliper (Digimatic™ caliper, Mitutoyo Corporation), so as to calculate the volume of the tumor in accordance with the following calculation formulae: […]
On the basis of the volumes of tumors obtained on the first day of administration, the mice were grouped such that averages of the tumor volumes were substantially equal among the groups. Each test compound was dissolved in DMSO and a solution was stored at the freezer before use. Immediately before the administration, the stock solution was diluted in saline with 100 μM of hydroxypropyl-β-cyclodextrin. […] Incidentally, the experiment was conducted on groups each consisting of 4 mice.

[5] = MTD i.v. (Halichondrin B 0.05 mg/kg, Compound (1) 0.20 mg/kg)
[6] = ½ MTD i.v. (Halichondrin B 0.025 mg/kg, Compound (1) 0.10 mg/kg)
[7] = ¼ MTD i.v. (Halichondrin B 0.0125 mg/kg, Compound (1) 0.05 mg/kg) + cetuximab 20 mg/kg
[8] = ½ MTD i.v. (Halichondrin B 0.025 mg/kg, Compound (1) 0.1 mg/kg) + cetuximab 20 mg/kg

SMILES	IC50 ([1]; Homo sapiens, MDA-MB-231, 72 h) [nM]	IC50 ([2]; Homo sapiens, FaDu, 72 h) [nM]	Increase rate of blood vessel number (%) [3, 5] [%]	Increase rate of blood vessel number (%) [3, 6] [%]	Tumor Regression on day 35 (%) [4, 7] [%]	Tumor Regression on day 35 (%) [4, 8] [%]	IC50 [1] [nM]	IC50 [2] [nM]
C=C1C[C@@H]2CC[C@@]34C[C@H]5O[C@H]6[C@@H](O3)[C@H]3O[C@H](CC[C@@H]3O[C@H]6C5O4)CC(=O)O[C@@H]3[C@@H](C)[C@@H]4O[C@@H]5C[C@]6(C[C@@H]7O[C@]8(C[C@H](C)[C@@H]9O[C@H](CN)[C@H](O)C[C@@H]9O8)C[C@H](C)[C@@H]7O6)O[C@@H]5C[C@@H]4O[C@H]3C[C@H]3O[C@@H](CC[C@@H]1O2)C[C@@H](C)C3=C (stereo in doubt) [Compound (1)]	0.109	0.0714	154	69	38	60		
C=C1C[C@@H]2CC[C@@]34C[C@H]5O[C@H]6[C@@H](O3)[C@H]3O[C@H](CC[C@@H]3O[C@H]6[C@H]5O4)CC(=O)O[C@@H]3[C@@H](C)[C@@H]4O[C@@H]5C[C@]6(C[C@@H]7O[C@]8(C[C@H](C)[C@@H]9O[C@H]([C@@H](O)C[C@@H](O)CO)C[C@@H]9O8)C[C@H](C)[C@@H]7O6)O[C@@H]5C[C@@H]4O[C@H]3C[C@H]3O[C@@H](CC[C@@H]1O2)C[C@@H](C)C3=C [Halichondrin B, reference compound]			39	31	−38	−2	1	0.124

Source: patent publication US20240309014A1, “MACROCYCLIC COMPOUNDS AND USES THEREOF” (President and Fellows of Harvard College, priority 2017, published 2024)
